# Molecular target: GST-RIPK1 (recombinant GST-RIPK1 kinase domain (residues 1-327)) (Homo sapiens (Human), UniProt Q13546)
# Assay: RIPK1-ADP-Glo Enzymatic Assay
# Assay type: biochemical
# Details: 25 nM GST-RIPK1, 300 μM ATP, 3 μM dephosphorylated-MBP, 30 min pre-incubation, 150 min reaction
# Experimental: The enzymatic activity of RIPK1 is measured using an assay derived from ADP-Glo kit (TMPromega), which provides a luminescent-based ADP detection system. Specifically, the ADP generated by RIPK1 kinase is proportionally detected as luminescent signals in a homogenous fashion. In this context, the assessment of the inhibitory effect of small molecules (EC50) is measured by the effectiveness of the compounds to inhibit the ATP to ADP conversion by RIPK1.
# In this assay, the potency (EC50) of each compound was determined from a ten-point (1:3 serial dilution; top compound concentration of 100000 nM) titration curve using the following outlined procedure. To each well of a white ProxiPlus 384 well-plate, 30 nL of compound (1% DMSO in final assay volume of 3 μL) was dispensed, followed by the addition of 2 μL of 1× assay buffer (25 mM Hepes 7.3, 20 mM MgCl2, 50 mM NaCl, 1 mM DTT, 0.005% Tween20, and 0.02% BSA) containing 37.5 nM of GST-RIPK1 (recombinant GST-RIPK1 kinase domain (residues 1-327) enzyme produced from baculovirus-transfected Sf21 cells: MW 62 kDa). Plates were placed in an ambient temperature humidified chamber for a 30 min pre-incubation with compound. Subsequently, each reaction was initiated by the addition of 1 μL 1× assay buffer containing 900 μM ATP and 3 μM dephosphorylated-MBP substrate. The final reaction in each well of 3 μL consists of 25 nM of GST-RIPK1, 300 μM ATP, and 3 μM dephosphorylated-MBP. Kinase reactions were allowed to proceed for 150 min prior to adding ADP-Glo reagents per Promega's outlined kit protocol. Dose-response curves were generated by plotting percent effect (% product conversion; Y-axis) vs. Log 10 compound concentrations (X-axis). EC50 values were calculated using a non-linear regression, four-parameters sigmoidal dose-response model.
# Chain of GST-RIPK1 (recombinant GST-RIPK1 kinase domain (residues 1-327)) (Q13546 1-327): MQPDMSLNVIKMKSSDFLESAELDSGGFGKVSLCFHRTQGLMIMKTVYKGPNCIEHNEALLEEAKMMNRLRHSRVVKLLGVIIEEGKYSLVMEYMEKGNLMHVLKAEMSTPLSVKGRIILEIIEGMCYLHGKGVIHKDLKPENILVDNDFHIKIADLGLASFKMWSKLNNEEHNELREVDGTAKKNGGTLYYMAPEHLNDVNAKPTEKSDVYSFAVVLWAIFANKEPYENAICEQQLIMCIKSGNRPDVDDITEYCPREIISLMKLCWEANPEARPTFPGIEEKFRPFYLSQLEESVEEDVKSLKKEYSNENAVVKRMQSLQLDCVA
row,SMILES,EC50
1,"N#CC12CC(n3nc4n(c3=O)[C@H](c3cccc(Cl)c3)CC4)(C1)C2 [Compound 1-62, (S)-3-(5-(3-chlorophenyl)-3-oxo-6,7-dihydro-3H-pyrrolo[2,1-c][1,2,4]triazol-2(5H)-yl)bicyclo[1.1.1]pentane-1-carbonitrile]",98.6 nM
2,"N#CC12CCC(n3nc4n(c3=O)[C@H](c3ccccc3)CC4)(C1)C2 [Compound 1-39, 4-[(5S)-3-oxo-5-phenyl-6,7-dihydro-3H-pyrrolo[2,1-c][1,2,4]triazol-2(5H)-yl]bicyclo[2.1.1]hexane-1-carbonitrile]",47 nM
3,"C[C@@H]1C[C@@H](c2cc(F)cc(F)c2)n2c1nn(C13CC(C#N)(C1)C3)c2=O [Compound 1-69, 3-((5S,7R)-5-(3,5-difluorophenyl)-7-methyl-3-oxo-6,7-dihydro-3H-pyrrolo[2,1-c][1,2,4]triazol-2(5H)-yl)bicyclo[1.1.1]pentane-1-carbonitrile]",263 nM
4,"O=c1n(C23CC(F)(C2)C3)nc2n1[C@H](c1ccccc1)CC2 [Compound 1-6, (5S)-2-(3-fluorobicyclo[1.1.1]pentan-1-yl)-5-phenyl-2,5,6,7-tetrahydro-3H-pyrrolo[2,1-c][1,2,4]triazol-3-one]",51.2 nM
5,"O=c1n(C23CC(Cl)(C2)C3)nc2n1[C@H](c1cncc(F)c1)CC2 [Compound 1-15, (5S)-2-(3-chlorobicyclo[1.1.1]pentan-1-yl)-5-(5-fluoropyridin-3-yl)-2,5,6,7-tetrahydro-3H-pyrrolo[2,1-c][1,2,4]triazol-3-one]",111 nM
6,"N#CC12CC(n3nc4n(c3=O)[C@H](c3cc(F)cc(F)c3)COC4)(C1)C2 [Compound 1-79, (R)-3-(5-(3,5-difluorophenyl)-3-oxo-5,6-dihydro-3H-[1,2,4]triazolo[3,4-c][1,4]oxazin-2(8H)-yl)bicyclo[1.1.1]pentane-1-carbonitrile]",108 nM
7,"O=c1n(C23CCC(CC2)C3)nc2n1[C@H](c1ccccc1)CC2 [Compound 1-1, (5S)-2-(bicyclo[2.2.1]heptan-1-yl)-5-phenyl-2,5,6,7-tetrahydro-3H-pyrrolo[2,1-c][1,2,4]triazol-3-one]",21.6 nM
8,"N#CC12CC(n3nc4n(c3=O)[C@H](c3ccccc3F)CC4)(C1)C2 [Compound 1-23, 3-[(5S)-5-(2-fluorophenyl)-3-oxo-6,7-dihydro-3H-pyrrolo[2,1-c][1,2,4]triazol-2(5H)-yl]bicyclo[1.1.1]pentane-1-carbonitrile]",31.8 nM
9,"Cc1cc(F)c([C@@H]2CCc3nn(C45CC(F)(C4)C5)c(=O)n32)c(F)c1 [Compound 1-74, (S)-5-(2,6-difluoro-4-methylphenyl)-2-(3-fluorobicyclo[1.1.1]pentan-1-yl)-2,5,6,7-tetrahydro-3H-pyrrolo[2,1-c][1,2,4]triazol-3-one]",20.9 nM
10,"C[C@H]1C[C@@H](c2cc(F)cc(F)c2)n2c1nn(C13CC(C#N)(C1)C3)c2=O [Compound 1-70, 3-((5S,7S)-5-(3,5-difluorophenyl)-7-methyl-3-oxo-6,7-dihydro-3H-pyrrolo[2,1-c][1,2,4]triazol-2(5H)-yl)bicyclo[1.1.1]pentane-1-carbonitrile]",68.5 nM
11,"COc1ccc([C@@H]2CCc3nn(C45CC(F)(C4)C5)c(=O)n32)cc1 [Compound 1-66, (S)-2-(3-fluorobicyclo[1.1.1]pentan-1-yl)-5-(4-methoxyphenyl)-2,5,6,7-tetrahydro-3H-pyrrolo[2,1-c][1,2,4]triazol-3-one]",85.8 nM
12,"CC1Cc2nn(C34CC(C#N)(C3)C4)c(=O)n2C1c1cc(F)cc(F)c1 (single isomer, unassigned) [Compound 1-52, 3-[5-(S or R)-(3,5-difluorophenyl)-6-(S or R)-methyl-3-oxo-6,7-dihydro-3H-pyrrolo[2,1-c][1,2,4]triazol-2(5H)-yl]bicyclo[1.1.1]pentane-1-carbonitrile]",601 nM
13,"N#CC12CC(n3nc4n(c3=O)[C@H](c3cccc(C(F)(F)F)c3)CC4)(C1)C2 [Compound 1-49, (S)-3-(3-oxo-5-(3-(trifluoromethyl)phenyl)-6,7-dihydro-3H-pyrrolo[2,1-c][1,2,4]triazol-2(5H)-yl)bicyclo[1.1.1]pentane-1-carbonitrile]",874 nM
14,"N#CC12CC(n3nc4n(c3=O)C(C3CCCC3)CC4)(C1)C2 (single isomer, unassigned) [Compound 1-54, 3-(5-(S or R)-cyclopentyl-3-oxo-6,7-dihydro-3H-pyrrolo[2,1-c][1,2,4]triazol-2(5H)-yl)bicyclo[1.1.1]pentane-1-carbonitrile]",340 nM
15,"O=c1n(C23CC(C2)C3)nc2n1[C@H](c1cc(F)cc(F)c1)CC2 [Compound 1-7, (5S)-2-(bicyclo[1.1.1]pentan-1-yl)-5-(3,5-difluorophenyl)-2,5,6,7-tetrahydro-3H-pyrrolo[2,1-c][1,2,4]triazol-3-one]",98.4 nM
16,"O=c1n(C23CC(Cl)(C2)C3)nc2n1[C@H](c1ccc(F)cn1)CC2 [Compound 1-71, (S)-2-(3-chlorobicyclo[1.1.1]pentan-1-yl)-5-(5-fluoropyridin-2-yl)-2,5,6,7-tetrahydro-3H-pyrrolo[2,1-c][1,2,4]triazol-3-one]",162 nM
17,"N#CC12CCC(n3nc4n(c3=O)[C@H](c3cc(F)cc(F)c3)CC4)(CC1)C2 [Compound 1-29, 4-[(5S)-5-(3,5-difluorophenyl)-3-oxo-6,7-dihydro-3H-pyrrolo[2,1-c][1,2,4]triazol-2(5H)-yl]bicyclo[2.2.1]heptane-1-carbonitrile]",68 nM
18,"O=c1n(C23CC(F)(C2)C3)nc2n1[C@H](c1cc(F)cc(F)c1)CCC2 [Compound 1-58, (S)-5-(3,5-difluorophenyl)-2-(3-fluorobicyclo[1.1.1]pentan-1-yl)-5,6,7,8-tetrahydro-[1,2,4]triazolo[4,3-a]pyridin-3(2H)-one]",45.9 nM
19,"O=c1n(C23CC(F)(C2)C3)nc2n1[C@H](c1cc(F)c(Cl)c(F)c1)CC2 [Compound 1-77, (S)-5-(4-chloro-3,5-difluorophenyl)-2-(3-fluorobicyclo[1.1.1]pentan-1-yl)-2,5,6,7-tetrahydro-3H-pyrrolo[2,1-c][1,2,4]triazol-3-one]",16.7 nM
20,"O=c1n(C23CC(F)(C2)C3)nc2n1[C@H](c1ccc(Cl)c(F)c1)CC2 [Compound 1-75, (S)-5-(4-chloro-3-fluorophenyl)-2-(3-fluorobicyclo[1.1.1]pentan-1-yl)-2,5,6,7-tetrahydro-3H-pyrrolo[2,1-c][1,2,4]triazol-3-one]",17.1 nM
21,"O=c1n(C23CCC(CC2)CC3)nc2n1[C@H](c1cc(F)cc(F)c1)CC2 [Compound 1-25, (5S)-2-(bicyclo[2.2.2]octan-1-yl)-5-(3,5-difluorophenyl)-2,5,6,7-tetrahydro-3H-pyrrolo[2,1-c][1,2,4]triazol-3-one]",685 nM

# More lines, now with the values ahead:
row,EC50,SMILES
1,341 nM,"Cc1ccccc1[C@@H]1CCc2nn(C34CC(F)(C3)C4)c(=O)n21 [Compound 4-15, (S)-2-(3-fluorobicyclo[1.1.1]pentan-1-yl)-5-(o-tolyl)-2,5,6,7-tetrahydro-3H-pyrrolo[2,1-c][1,2,4]triazol-3-one]"
2,385 nM,"N#CC12CC(n3nc4n(c3=O)C(c3cnccn3)CC4)(C1)C2 (racemic) [Compound 4-1, (±)-3-(3-oxo-5-(pyrazin-2-yl)-6,7-dihydro-3H-pyrrolo[2,1-c][1,2,4]triazol-2(5H)-yl)bicyclo[1.1.1]pentane-1-carbonitrile]"
3,496 nM,"O=c1n(C23CC(F)(C2)C3)nc2n1[C@H](c1cnc(C(F)(F)F)cn1)CC2 [Compound 4-16, (S)-2-(3-fluorobicyclo[1.1.1]pentan-1-yl)-5-(5-(trifluoromethyl)pyrazin-2-yl)-2,5,6,7-tetrahydro-3H-pyrrolo[2,1-c][1,2,4]triazol-3-one]"
4,108 nM,"O=c1n(C23CC(F)(C2)C3)nc2n1[C@H](c1ccc(C3CC3)cc1)CC2 [Compound 4-11, (S)-5-(4-cyclopropylphenyl)-2-(3-fluorobicyclo[1.1.1]pentan-1-yl)-2,5,6,7-tetrahydro-3H-pyrrolo[2,1-c][1,2,4]triazol-3-one]"
5,116 nM,"O=c1n(C23CC(F)(C2)C3)nc2n1[C@H](c1cc(F)cc(F)c1)CC2F (single isomer, unassigned) [Compound 6-1, (5S)-5-(3,5-difluorophenyl)-7-(S or R)-fluoro-2-(3-fluorobicyclo[1.1.1]pentan-1-yl)-2,5,6,7-tetrahydro-3H-pyrrolo[2,1-c][1,2,4]triazol-3-one]"
6,38.8 nM,"O=c1n(C23CC(F)(C2)C3)nc2n1[C@H](c1cnccn1)C[C@@H]2F [Compound 4-17, (5S,7S)-7-fluoro-2-(3-fluorobicyclo[1.1.1]pentan-1-yl)-5-(pyrazin-2-yl)-2,5,6,7-tetrahydro-3H-pyrrolo[2,1-c][1,2,4]triazol-3-one]"
7,79.8 nM,"Cc1cncc([C@@H]2CCc3nn(C45CC(F)(C4)C5)c(=O)n32)n1 [Compound 4-13, (S)-2-(3-fluorobicyclo[1.1.1]pentan-1-yl)-5-(6-methylpyrazin-2-yl)-2,5,6,7-tetrahydro-3H-pyrrolo[2,1-c][1,2,4]triazol-3-one]"

# Source: US20240025912A1 (Merck Sharp & Dohme LLC, priority 2022, published 2024)
